In US8618114B2 (priority 2008, dated 2013):

Experiments:
[1] = system: male rats; test: Passive avoidance in the shuttle chamber, Scopolamine amnesia model, rats; type: in vivo, rat; conditions: compounds injected 60 minutes before the test, read 24 hours after training, FIG. 1-3
Method: (§1) 14.1.1. Passive Avoidance of mice in the Shuttle Chamber. The experiments were carried out in aged male mice of BALB/c line weighing 20-24 g or male rats weighing 200-250 g.
(§2) A shuttle chamber (Ugo Basile, Italy) that consisted of two sections was used. One section was white and lightened, the other one was dark. The sections were connected through a hole which could be overlapped by automatic vertical door. The floor of the dark section was made of transverse metal bars on which DC current impulses could be fed.
(§3) On the first day of testing 30 minutes before training the animals were injected intraperitoneally with Scopolamine which causes disturbance of training (memory loss). The animals of the trial group were additionally administered with one of the tested compounds. The animals of the control group were injected with physiological solution. Each group consisted of 8 animals. The animals were placed in the light section, and latent period of the first entry into the dark chamber was registered. Then vertical door was closed and the animal was punished by 0.6 mA DC current for 3 seconds. After that the animal was taken back to its home cage. […]

[2] = system: male mice of SHK line; test: Novel object recognition test, Scopolamine amnesia model; type: in vivo, mouse; conditions: Scopolamine 1 mg/kg i.p.; compounds i.p. 60 minutes before training; FIG. 7
Method: 14.1.2. Novel object recognition test. The test was carried out in aged male mice of SHK line. […] A mouse was placed into the central chamber and allowed to explore the maze. The floor was cleaned after each animal. The sequence of chamber entries and duration of visits were registered by the observer. The test was ended after 13 entries into the dead-end chambers. Criterion for entry was a location of all animal's paws inside the chamber at the same time.
During the training the animal was placed in the maze with one equiform bowl in each side chamber. In the course of testing (one hour after training) two opposite standing bowls were replaced by identical flasks, and the animal was allowed to explore the maze. The time spent by the animal in each side chamber was registered during the periods of training and testing. Index of novel object recognition was calculated as the ratio of time spent by the animal in the side chambers with novel objects to the total time spent by it in all side chambers.

[3] = system: rats; test: Passive avoidance in the shuttle chamber, amnesia caused by MK-801, rats; type: in vivo, rat; conditions: MK-801 0.1 mg/kg i.p., compounds injected 60 minutes before the test, FIG. 8-10
[4] = system: male mice of BALB/c line; test: Mice Behavior in the Elevated Plus Maze; type: in vivo, mouse; conditions: tested compounds i.p.; FIG. 14-16
Method: Anxiolytic activity of compounds 1.1(11), 1.2.7(1), 1.2.6(1), 1.2.3(1), 1.2.11(1), 1.2.22(1), 1.2.22(18) in test “Mice Behavior in the Elevated Plus Maze”. The experiments were carried out in aged male mice of BALB/c line weighing about 25 g. The animals were housed 5-7 per cage with water and food available. None of the animals was acquainted with the experimental set-up before. Each experimental group included 8 animals.
The procedure used was described earlier by Lister (Lister R. G. The use of a plus-maze to measure anxiety in the mouse. Psychopharmacology, 1987; 92:180-185). Plexiglass set-up consisted of two opened arms of 30×5 cm size and two closed arms of 30×5×15 cm size. Side arms were closed with transparent plexiglass and were connected with the central zone via a platform of 5×5 cm size. The opened arms, central platform and floor were made of black plexiglass. The set-up was mounted on a metallic base which was placed 38.5 cm above the floor level.
The animals were injected intraperitoneally with placebo, Buspirone (5 mg/kg, 30 minutes before training), Lorazepam (0.05 mg/kg, 60 minutes before training) or with one of the tested compounds 1.1(11), 1.2.7(1), 1.2.6(1), 1.2.3(1), 1.2.11(1), 1.2.22(1), 1.2.22(18). Buspirone and Lorazepam were introduced in a maximal effective dose, at which side sedative effect and general decrease of exploratory activity (the number of arm entries during the test) were not observed yet.
Each mouse was placed in the maze center with its head towards the opened arm. Over a period of 5 minutes the sequence and duration of arm entries were registered by means of a computer program. Criterion for entry is a location of all animal's paws inside the arm at the same time. The index of preference was calculated as a ratio of the time spent by the animal in the opened arms as well as the number of entries into the opened arms to the total time spent by it in the opened and closed arms or, respectively, to the whole number of entries to the arms of both types. The number of defecations left by a mouse was regarded as an additional parameter characterizing the anxiety state. Being in normal state the animals usually avoid open arms (the preference index is between 0.2 and 0.3).

[5] = system: Mice of SHK line; test: Prepulse inhibition of the startle response in mice (Apomorphine model); type: in vivo, mouse; conditions: 1 mg/kg i.p. 60 minutes before the test; FIG. 17
Method: Mice of SHK line weighing about 24-30 g were used in the test. The experiments were carried out during the light period of animal's diurnal. Apomorphine hydrochloride and Haloperidol were received from Sigma Chemicals Company, (USA). Apomorphine hydrochloride was dissolved in 0.1% solution of ascorbic acid prepared with sterilized water; it was introduced subcutaneously 15 minutes before the test. Haloperidol was dissolved in sterilized water using emulsifier Twin 80, it was introduced intraperitoneally 60 minutes before the test. Compounds 1.2.22(1), 1.2.22(18), 1.2.7(1) were dissolved in sterilized water and introduced intraperitoneally 60 minutes before the test. The injection volume was 10 ml/kg. 0.1%. Solution of ascorbic acid, prepared with sterilized water and Twin 80, was injected to control group of animals.
The test instrument consisted of a chamber made of transparent plexiglass (manufacturer—Columbia Instruments Company, USA) and placed on the platform; the latter was lodged inside the sound insulating chamber. A high frequency sound column transmitting acoustic stimuluses was located 2 cm away from the platform. […] The level of background noise made up 65 dB. Each animal received 4 stimuli of single testing (pulse) stimulus of 50 ms duration and 105 dB or prepulsory stimulus (pre-pulse) of 20 ms duration and 85 dB, after which in 30 ms pulse stimulus of 50 ms duration and 105 dB followed. Time interval between repeated pulse or prepulse in combination with pulse stimuli made up 10 s. Inhibition of the startle in reply to prepulse-plus-pulse stimulus was calculated in percentage towards amplitude of startle in response to isolated pulse stimulus.

[6] = molecular target: T1, 5-HT6 receptor (Homo sapiens (Human), UniProt P50406); test: functional assay for serotonin 5-HT6 receptor inhibition (serotonin-induced intracellular cAMP, LANCE cAMP kit, HEK 293 cells); type: cell-based; conditions: HEK 293 cells with expressed 5-HT6 receptor; reduction of serotonin-induced intracellular cAMP
T1 sequence (P50406 whole entry): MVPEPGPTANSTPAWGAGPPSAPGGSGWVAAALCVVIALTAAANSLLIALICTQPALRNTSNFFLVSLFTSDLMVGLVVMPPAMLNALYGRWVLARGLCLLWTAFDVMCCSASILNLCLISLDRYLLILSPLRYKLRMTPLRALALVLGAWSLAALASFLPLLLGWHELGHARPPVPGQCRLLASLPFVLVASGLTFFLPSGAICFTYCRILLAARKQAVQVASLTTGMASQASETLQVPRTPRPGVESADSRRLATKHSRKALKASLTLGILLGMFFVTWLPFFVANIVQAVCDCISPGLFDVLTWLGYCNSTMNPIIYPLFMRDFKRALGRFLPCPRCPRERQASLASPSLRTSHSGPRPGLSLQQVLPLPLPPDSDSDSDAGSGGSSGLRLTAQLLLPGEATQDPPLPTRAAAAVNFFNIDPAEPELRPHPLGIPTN
Method: Determination of antagonistic activity of compounds of the general formula 1 towards 5-HT6 receptors. Compounds of the general formula 1 were tested for their ability to prevent 5-HT6 receptors activation by serotonin. HEK 293 cells (cells of human embryo's kidney) with artificially expressed 5-HT6 receptor, activation of which by serotonin leads to increasing the concentration of intracellular cAMP, were used. The level of intracellular cAMP was determined using reagent kit LANCE cAMP (PerkinElmer) according to the method described by the manufacturer of the kit [http://las.perkinelmer.com/content/Manuals/MAN_LANCEcAMP384KitUser.pdf]. Effectiveness of the compounds was estimated by their ability to reduce the level of intracellular cAMP induced by serotonin. Table 4 presents IC50 values for the compounds of general formula 1 in the setting of functional assay for serotonin 5-HT6 receptor inhibition. The data given testify their moderate or high antagonistic activity.

[7] = system: mice; test: Passive avoidance in the shuttle chamber, amnesia caused by MK-801, mice; type: in vivo, mouse; conditions: MK-801 0.1 mg/kg i.p., compounds injected 30 minutes before the test, FIG. 11-13
Method: as §2
On the first day of testing 30 minutes before training the animals were injected intraperitoneally with Scopolamine which causes disturbance of training (memory loss). The animals of the trial group were additionally administered with one of the tested compounds. The animals of the control group were injected with physiological solution. Each group consisted of 8 animals. The animals were placed in the light section, and latent period of the first entry into the dark chamber was registered. Then vertical door was closed and the animal was punished by 0.6 mA DC current for 3 seconds. After that the animal was taken back to its home cage. In 22-24 hours the same animal was placed again in the light section of the shuttle chamber and latent period of its first entry into the dark section, the total time of its stay in the light section and the number of entries into the dark section were registered. Each monitoring lasted for 5 minutes.
14.2.1. Passive Avoidance of mice in the Shuttle Chamber. The test was carried out as in example 14.1.1. […]

[8] = system: male mice of BALB/c line; test: Porsolt's Forced Swim Test; type: in vivo, mouse; conditions: i.p. for 4 days subchronically; FIG. 18
Method: 17.1. Mice Behavior in Porsolt's Forced Swim Test. Expression of behavioral despair was offered to use as a model for investigation of antidepressant activity in Porsolt's test (1977, 1978). That is, the behavior of a mouse or rat in a closed basin, from which the animal can not get out, cheracterizes the level of its despair which could be reduced by means of antidepressant intake.
Male mice of BALB/c line weighing about 20-30 g were used in the test. The animals were placed for 15 minutes in the basin (of 300 mm height, 480 mm diameter) filled with water to 70% of its volume at 25° C. In 3-5 minutes swimming activity began to decrease and change by phases of movement and immobility. […] Data for the last 5 minutes of the test were taken for the analysis. Automated computerized detection of motion with videosystem and Any-maze program were used in the test. The tested compounds 1.2.7(1) and 1.2.22(18) were injected intraperitonelly for 4 days subchronically.

[9] = system: male mice of BALB/c line; test: Tail suspension test; type: in vivo, mouse; conditions: i.p. during 4 days; FIG. 19
Source text: 17.2. Mice behavior in tail suspension test. Tail suspension test was described by Steri et al. (1985) as a convenient method for investigation of potential antidepressants. It is supposed that forced immobility in rodents could be used as a model for investigation of depressive disorders at humans. Clinically effective antidepressants lower mice immobility which follows negative attempts to become free when their tails are fixed.
Male mice of BALB/c line weighing about 20-30 g were used in the test. The animals were suspended by tail with a sticky tape on the holder over a horizontal surface at a height of about 40 cm, and the total duration of complete immobility episodes was registered in the course of 3 minutes. […] Automated computerized detection of motion with videosystem and Any-maze program were used in the test. The tested compounds 1.2.7(1) and 1.2.22(18) were administered intraperitoneally during 4 days. Reference substances (Fluoxetine, Desipramine) were injected intraperitoneally 15 minutes before the beginning of the test.

[10] = molecular target: T1, 5-HT6 receptor; test: competitive radioligand binding ([3H] Lysergic acid diethylamide) to serotonin 5-HT6 receptors, HeLa cell membranes; conditions: read-out: IC50, competitive assay of serotonin 5-HT6 receptor inhibition; displacement of 1.5 nM [3H] Lysergic acid diethylamide, 120 min at 37° C.
Method: Determination of activity of the compounds of the general formula 1 in the setting of competitive binding to serotonin 5-HT6 receptors.
Screening of the disclosed compounds for their potential ability to interact with serotonin 5-HT6 receptors was carried out by method of radioligand binding. For this purpose membrane species were prepared from expressing recombinant human 5-HT6 receptors HeLa cells by means of their homogenization in glass homogenizer with subsequent separation of plasmatic membranes from cell nucli, mitochondria's and cell wreckages by differential centrifugation. Determination of tested compounds binding to 5-HT6 receptors was carried out according to the method described in [Monsma F J Jr, Shen Y, Ward R P, Hamblin M W and Sibley D R, Cloning and expression of a novel serotonin receptor with high affinity for tricyclic psychotropic drugs. […] After incubation the samples were filtered in vacuo on glass-microfiber filters G/F (Millipor, USA), filters were washed three times with cold solution of the medium and radioactivity was measured by scintillation counter MicroBeta 340 (PerkinElmer, USA). Nonspecific binding which made up 30% of overall binding was determined by incubation of membrane preparations with radioligand in the presence of 5 μM Serotonin (5-HT). Methiothepin was used as positive control. Binding of the tested compounds to the receptor was determined by their ability to displace the radioligand and expressed in percent of displacement. The percent of displacement was calculated according to the following equation:
[formula] wherein: TA—was overall radioactivity in the presence of radioligand only, CA—was radioactivity in the presence of radioligand and tested compound and NA—was radioactivity in the presence of radioligand and Serotonin (5 μM).

[11] = system: male mice of BALB/c line; test: Passive avoidance in the shuttle chamber, Scopolamine amnesia model, mice; type: in vivo, mouse; conditions: compounds injected 30 minutes before the test, read 24 hours after training, FIG. 4-6
Method: as §1, §2, §3

Row | IC50 [6] [nM] | IC50 [10] [nM] | Compound | effect on amnesia caused by Scopolamine (latent period, light arm stay, dark arm entries) [1] | prevention of Scopolamine-disturbed novel object recognition [2] | effect on amnesia caused by MK-801 (latent period, light arm stay, dark arm entries) [3] | anxiolytic activity in the elevated plus maze [4] | effect on Apomorphine-disturbed prepulse inhibition of startle [5] | effect on amnesia caused by MK-801 (latent period, light arm stay, dark arm entries) [7] | antidepressant activity, immobility during the final 5 minutes in Porsolt's test [8] | antidepressant activity, immobility in tail suspension test [9] | effect on amnesia caused by Scopolamine (latent period, light arm stay, dark arm entries) [11]
1 | – | – | CNc1nn2c(C)c(N(C)C)c(C)nc2c1S(=O)(=O)c1ccccc1 [1.2.22(18)] | decrease amnesia | prevent memory impairment caused by Scopolamine | decrease amnesia caused by MK-801 | anxiolytic activity analogous to the activity of control compounds | prevented disturbance of prepulse inhibition of startle caused by Apomorphine | – | – | – | –
2 | 177 | – | CSc1nn2c(C)cc(CO)nc2c1S(=O)(=O)c1ccccc1 [1.1.7(1), 5-(hydroxymethyl)-7-methyl-2-methylsulfanyl-3-phenylsulfonyl-pyrazolo[1,5-a]pyrimidine] | – | – | – | – | – | decrease amnesia caused by MK-801 | – | – | –
3 | 19 | 0.88 | CNc1nn2c(C)cc(CO)nc2c1S(=O)(=O)c1ccccc1 [1.2.7(1), 5-(hydroxymethyl)-7-methyl-2-methylamino-3-phenylsulfonyl-pyrazolo[1,5-a]pyrimidine] | decrease amnesia | prevent memory impairment caused by Scopolamine | decrease amnesia caused by MK-801 | – | prevented disturbance of prepulse inhibition of startle caused by Apomorphine | – | exhibits antidepressant activity | antidepressant activity comparable with the activity of Fluoxetine and Desipramine | –
4 | – | – | Cc1cc(C)n2nc([S+](C)[O-])c(S(=O)(=O)c3ccccc3)c2n1 (centres unmarked) [1(1)] | – | – | – | – | – | decrease amnesia caused by MK-801 | – | – | decrease amnesia
